From patent publication US11053204B2, “Pyrimidinyloxy benzene derivatives as herbicides” (FMC Corporation, priority 2015, dated 2021)

Key:
Type in all cases: in vivo
[1] = test system: ragweed (common ragweed, Ambrosia elatior); assay: Test A postemergence, visual injury rating
How it was run: (§1)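 Compounds in non-phytotoxic solvent with surfactant applied as soil spray preemergence, or postemergence to plants 2-10 cm at one- to two-leaf stage, in loam/sand. After approximately 10 days in greenhouse, injury rated visually versus untreated controls, 0 (no effect) to 100 (complete control).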

[2] = test system: pigweed (Amaranthus retroflexus); assay: Test A postemergence, visual injury rating
How it was run: as §1

corn (Zea mays) = assay: Test A postemergence, visual injury rating
How it was run: as §1

[3] = test system: barnyardgrass (Echinochloa crus-galli); assay: Test A postemergence, visual injury rating
How it was run: as §1

[4] = test system: blackgrass (Alopecurus myosuroides); assay: Test A postemergence, visual injury rating
How it was run: as §1

[5] = test system: galium (catchweed bedstraw, Galium aparine); assay: Test A postemergence, visual injury rating
How it was run: as §1

[6] = test system: giant foxtail (Setaria faberii); assay: Test A postemergence, visual injury rating
How it was run: as §1

kochia (Kochia scoparia) [7] = assay: Test A postemergence, visual injury rating
How it was run: as §1

[8] = test system: Italian ryegrass (Lolium multiflorum); assay: Test A postemergence, visual injury rating
How it was run: as §1

[9] = test system: wheat (Triticum aestivum); assay: Test A postemergence, visual injury rating
How it was run: as §1

[10] = test system: sedge, umbrella (small-flower umbrella sedge, Cyperus difformis); assay: Test B flooded paddy test, plant response rating; details: 250 g ai/ha; Flood; scale of 0 to 100 where 0 is no effect and 100 is complete control; 13 to 15 days
How it was run: (§2)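 Under a constant 3 cm flood, test compounds went directly into the paddy water. Following 13 to 15 days of greenhouse growth, treated species and controls were compared by eye.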

[11] = test system: barnyardgrass (Echinochloa crus-galli); assay: Test B flooded paddy test, plant response rating; details: 250 g ai/ha; Flood; scale of 0 to 100 where 0 is no effect and 100 is complete control; 13 to 15 days
How it was run: as §2

[12] = test system: ducksalad (Heteranthera limosa); assay: Test B flooded paddy test, plant response rating; details: 250 g ai/ha; Flood; scale of 0 to 100 where 0 is no effect and 100 is complete control; 13 to 15 days
How it was run: as §2

rice (Oryza sativa) = assay: Test B flooded paddy test, plant response rating; details: 250 g ai/ha; Flood; scale of 0 to 100 where 0 is no effect and 100 is complete control; 13 to 15 days
How it was run: as §2

[13] = test system: ragweed (common ragweed, Ambrosia elatior); assay: Test A preemergence, visual injury rating
How it was run: as §1

[14] = test system: pigweed (Amaranthus retroflexus); assay: Test A preemergence, visual injury rating
How it was run: as §1

[15] = test system: barnyardgrass (Echinochloa crus-galli); assay: Test A preemergence, visual injury rating
How it was run: as §1

[16] = test system: giant foxtail (Setaria faberii); assay: Test A preemergence, visual injury rating
How it was run: as §1

kochia (Kochia scoparia) [17] = assay: Test A preemergence, visual injury rating
How it was run: as §1

[18] = test system: Italian ryegrass (Lolium multiflorum); assay: Test A preemergence, visual injury rating
How it was run: as §1

[19] = 31 g ai/ha, 0 to 100 scale (0 no effect, 100 complete control)
[20] = 125 g ai/ha, 0 to 100 scale, 0 is no effect, 100 is complete control, approximately 10 days
[21] = 31 g ai/ha, 0 to 100 scale, 0 no effect, 100 complete control
[22] = 125 g ai/ha, 0 to 100 scale (0 no effect, 100 complete control)
[23] = 31 g ai/ha, 0 to 100 scale, 0 is no effect, 100 is complete control, approximately 10 days
[24] = 500 g ai/ha, 0 is no effect, 100 is complete control
[25] = 500 g ai/ha, 0 to 100 scale (0 no effect, 100 complete control)

## N#CC(CCCCC(F)(F)F)c1ccccc1Oc1ncc(Cl)cn1 (stereo not drawn) [Compound 145]
[1]; [19]
  Ragweed plant response rating: 10
[1]; [20]
  Ragweed plant response rating: 20
[2]; [19]
  Pigweed plant response rating: 90
[2]; [20]
  Pigweed plant response rating: 100
Corn (Zea mays); [19]
  Corn plant response rating: 30
Corn (Zea mays); [20]
  Corn plant response rating: 50
[3]; [19]
  Barnyardgrass plant response rating: 30
[3]; [20]
  Barnyardgrass plant response rating: 80
[4]; [19]
  Blackgrass plant response rating: 40
[4]; [20]
  Blackgrass plant response rating: 60
[5]; [19]
  Galium plant response rating: 40
[5]; [20]
  Galium plant response rating: 80
[6]; [19]
  Foxtail, Giant plant response rating: 50
[6]; [20]
  Foxtail, Giant plant response rating: 70
Kochia (Kochia scoparia) [7]; [19]
  Kochia plant response rating: 70
Kochia (Kochia scoparia) [7]; [20]
  Kochia plant response rating: 90
[8]; [19]
  Ryegrass, Italian plant response rating: 10
[8]; [20]
  Ryegrass, Italian plant response rating: 40
[9]; [19]
  Wheat plant response rating: 10
[9]; [20]
  Wheat plant response rating: 30
[10]
  Plant response rating, Sedge, Umbrella: 100
[11]
  Plant response rating, Barnyardgrass: 50
[12]
  Plant response rating, Ducksalad: 100
Rice (Oryza sativa)
  Plant response rating, Rice: 30
[13]; [21]
  Plant response rating, Ragweed: 0
[13]; [22]
  Plant response rating, Ragweed: 30
[14]; [21]
  Plant response rating, Pigweed: 100
[14]; [22]
  Plant response rating, Pigweed: 100
[15]; [21]
  Plant response rating, Barnyardgrass: 40
[15]; [22]
  Plant response rating, Barnyardgrass: 80
[16]; [21]
  Plant response rating, Foxtail, Giant: 90
[16]; [22]
  Plant response rating, Foxtail, Giant: 100
Kochia (Kochia scoparia) [17]; [21]
  Plant response rating, Kochia: 0
Kochia (Kochia scoparia) [17]; [22]
  Plant response rating, Kochia: 40
[18]; [21]
  Plant response rating, Ryegrass, Italian: 10
[18]; [22]
  Plant response rating, Ryegrass, Italian: 50

## O=C(OCCC(F)(F)F)c1cc(Cl)ccc1Oc1ncc(Cl)cn1 [Compound 88]
[1]; [23]
  Ragweed plant response rating: 0
[1]; [20]
  Ragweed plant response rating: 0
[2]; [23]
  Pigweed plant response rating: 0
[2]; [20]
  Pigweed plant response rating: 0
Corn (Zea mays); [23]
  Corn plant response rating: 0
Corn (Zea mays); [20]
  Corn plant response rating: 0
[3]; [23]
  Barnyardgrass plant response rating: 0
[3]; [20]
  Barnyardgrass plant response rating: 0
[4]; [23]
  Blackgrass plant response rating: 0
[4]; [20]
  Blackgrass plant response rating: 0
[5]; [23]
  Galium plant response rating: 0
[5]; [20]
  Galium plant response rating: 0
[6]; [23]
  Foxtail, Giant plant response rating: 0
[6]; [20]
  Foxtail, Giant plant response rating: 0
Kochia (Kochia scoparia) [7]; [23]
  Kochia plant response rating: 0
Kochia (Kochia scoparia) [7]; [20]
  Kochia plant response rating: 0
[8]; [23]
  Ryegrass, Italian plant response rating: 0
[8]; [20]
  Ryegrass, Italian plant response rating: 0
[9]; [23]
  Wheat plant response rating: 0
[9]; [20]
  Wheat plant response rating: 0
[10]
  Plant response rating, Sedge, Umbrella: 0
[11]
  Plant response rating, Barnyardgrass: 0
[12]
  Plant response rating, Ducksalad: 0
Rice (Oryza sativa)
  Plant response rating, Rice: 20
[13]; [21]
  Plant response rating, Ragweed: 0
[13]; [22]
  Ragweed plant response rating: 0
[14]; [21]
  Plant response rating, Pigweed: 0
[14]; [22]
  Pigweed plant response rating: 0
[15]; [21]
  Plant response rating, Barnyardgrass: 0
[15]; [22]
  Barnyardgrass plant response rating: 0
[16]; [21]
  Plant response rating, Foxtail, Giant: 0
[16]; [22]
  Foxtail, Giant plant response rating: 0
Kochia (Kochia scoparia) [17]; [21]
  Plant response rating, Kochia: 0
Kochia (Kochia scoparia) [17]; [22]
  Kochia plant response rating: 0
[18]; [21]
  Plant response rating, Ryegrass, Italian: 0
[18]; [22]
  Ryegrass, Italian plant response rating: 0

## C=CCSC(=O)c1c(Br)cccc1Oc1ncc(Cl)cn1 [Compound 91]
[1]; [20]
  Ragweed plant response rating: 0
[1]; [24]
  Ragweed plant response rating (0 to 100 scale): 20
[2]; [20]
  Pigweed plant response rating: 100
[2]; [24]
  Pigweed plant response rating (0 to 100 scale): 100
Corn (Zea mays); [20]
  Corn plant response rating: 20
Corn (Zea mays); [24]
  Corn plant response rating (0 to 100 scale): 50
[3]; [20]
  Barnyardgrass plant response rating: 30
[3]; [24]
  Barnyardgrass plant response rating (0 to 100 scale): 100
[4]; [20]
  Blackgrass plant response rating: 20
[4]; [24]
  Blackgrass plant response rating (0 to 100 scale): 30
[5]; [20]
  Galium plant response rating: 70
[5]; [24]
  Galium plant response rating (0 to 100 scale): 90
[6]; [20]
  Foxtail, Giant plant response rating: 30
[6]; [24]
  Foxtail, Giant plant response rating (0 to 100 scale): 100
Kochia (Kochia scoparia) [7]; [20]
  Kochia plant response rating: 60
Kochia (Kochia scoparia) [7]; [24]
  Kochia plant response rating (0 to 100 scale): 100
[8]; [20]
  Ryegrass, Italian plant response rating: 0
[8]; [24]
  Ryegrass, Italian plant response rating (0 to 100 scale): 30
[9]; [20]
  Wheat plant response rating: 20
[9]; [24]
  Wheat plant response rating (0 to 100 scale): 30
[10]
  Plant response rating, Sedge, Umbrella: 95
[11]
  Plant response rating, Barnyardgrass: 0
[12]
  Plant response rating, Ducksalad: 100
Rice (Oryza sativa)
  Plant response rating, Rice: 20
[13]; [22]
  Ragweed plant response rating: 0
[13]; [25]
  Ragweed plant response rating: 0
[14]; [22]
  Pigweed plant response rating: 40
[14]; [25]
  Pigweed plant response rating: 100
[15]; [22]
  Barnyardgrass plant response rating: 90
[15]; [25]
  Barnyardgrass plant response rating: 100
[16]; [22]
  Foxtail, Giant plant response rating: 70
[16]; [25]
  Foxtail, Giant plant response rating: 100
Kochia (Kochia scoparia) [17]; [22]
  Kochia plant response rating: 20
Kochia (Kochia scoparia) [17]; [25]
  Kochia plant response rating: 100
[18]; [22]
  Ryegrass, Italian plant response rating: 0
[18]; [25]
  Ryegrass, Italian plant response rating: 80
